Experimental data as given in patent US20120088827A1 (Profectus Biosciences, Inc., priority 2009, published 2012).

Test system: PGE2
Test: Inhibition of PGE2 release in LPS-stimulated RAW 264.7 cells
Format: cell-based
Conditions: Mus musculus, RAW264.7; pretreated 2 hours, 1 μg/mL LPS 20-24 hours
Description: RAW 264.7 cells were seeded at 4×10^4 cells per well in complete growth medium in 96 well white TC plates with clear bottoms one day prior to the assay. The next day the cells were washed once and 100 μL fresh growth media was added. Cells were pretreated with 0.5 μL from a 6 point 200× dilution series of the test compounds in DMSO for 2 hours. Following pretreatment with the drugs, the inflammatory response was induced by adding 5 μL of a 20 μg/mL solution of LPS (Sigma). The cells were incubated in the presence of the drugs and 1 μg/mL LPS for another 20-24 hours. Typically after treatment the total DMSO was […] of the culture volume and the final concentrations of the compounds were approximately: 40, 20, 10, 1, 0.2 and 0 μM depending on the MW of each compound. Modified dilution series were prepared as needed to get adequate dose response curves without changing the % DMSO. Samples were run in duplicate or triplicate and included DMSO treated control wells with and without LPS stimulation. Drugs with a known activity such as Parthenolide or DHMEQ were run as experimental controls. After 20-24 hours LPS activation, the media supernatant was collected from the cells and replaced with fresh media. The supernatant samples were cleared by centrifugation at 1,000×g for 5 minutes, transferred to fresh storage plates, and stored frozen at −30° C.
After determining the appropriate supernatant dilutions experimentally, PGE2 levels in the supernatants were quantified using Parameter™ PGE2 Immunoassay (R&D Systems) according to the manufacturer's protocol. […] Absorbance at 450 nm with a reference at 595 nm was recorded using a Becton-Dickinson DTX 880 Multimode Detector.
The concentration of PGE2 in the unknown samples was determined from a curve-fit of the PGE2 standard absorbance data and multiplying by the dilution factor. […] Inhibition of the amount of PGE2 released in the drug treated wells was calculated relative to the maximum activation in the DMSO+LPS treated control wells (i.e., % inhibition=100−(drug+LPS treated)/(DMSO+LPS treated)). […]

Row | EC50 [nM] | SMILES
1 | 1100 | O=C(CC1CCCCC1)Oc1ccccc1C(=O)NC1=CC(=O)C2OC2C1O (racemic) [Example 3, (±)-2-(2-hydroxy-5-oxo-7-oxabicyclo[4.1.0]hept-3-en-3-ylcarbamoyl)phenyl 2-cyclohexylacetate]
2 | 1900 | CC(C)CC(=O)Oc1ccccc1C(=O)NC1=CC(=O)C2OC2C1O (racemic) [Example 1, (±)-2-(2-hydroxy-5-oxo-7-oxabicyclo[4.1.0]hept-3-en-3-ylcarbamoyl)phenyl 3-methylbutanoate]
3 | 2700 | CC(C)OC(=O)Oc1ccccc1C(=O)NC1=CC(=O)C2OC2C1OC(=O)OC(C)C (racemic) [Example 2, (±)-3-(2-isopropoxycarbonyloxy-benzoylamino)-5-oxo-7-oxa-bicyclo[4.1.0]hept-3-en-2-yl ester isopropyl ester]
